{"source": "paper PMC10666548", "about": "“Identification of the bacterial metabolite aerugine as potential trigger of human dopaminergic neurodegeneration” (Environment international, 2023)", "key": {"[1]": {"system": "dopaminergic system of C. elegans BY200", "assay": "Basal slowing response (BSR) behavioral assay", "type": "in vivo, Caenorhabditis elegans", "conditions": "L4 BY200 worms treated 2 days", "procedure": "The basal slowing response (BSR) is a behavioral assay that assesses the functionality of the worms’ DAergic system. For this, worms were washed three times with S-basal buffer (100 mM NaCl, 5 mg/L cholesterol, 50 mM potassium phosphate buffer, pH 6.0) to remove residual bacteria, and placed on the center of a 60-mm NGM plates in the absence or presence of an OP50 bacteria ring. After habituation (5 min), the number of body bends of each worm was counted during 20 s to determine its immobility rate. The results were expressed as the difference (Δ) between the number of body bends in the absence (a) and presence (p) of bacteria on fresh plates (Δ = a-p). […]\nFig. 5. […] They were exposed to different aerugine concentrations and counted every 24 h. […] Differences on a given day were analyzed by ANOVA and found to be non-significant. […] The GFP-labelled neurons of 20–30 worms per condition were analyzed and scored for specific neurodegeneration. […] These scores were assessed to quantify the dopaminergic neurodegeneration caused be aerugine in vivo. C Worms with wild type morphology (score 0) were counted. […] D The degeneration scores exemplified in B were quantified. […] E The “basal slowing response” was assessed as proxy for the functionality of the worms’ dopaminergic system. It was measured in L4 larval stage BY200 worms treated for 2 days with aerugine. […]"}, "HeLa": {"system": "HeLa", "assay": "Cell line viability, resazurin reduction, 72 h", "type": "cell-based, human", "conditions": "at <100 μM", "procedure": "(§1) Hek293FT were acquired from ThermoFisher Scientific (cat. no. R70007). HepG2 were acquired from ATCC (HB-8065). HeLa were acquired from ATCC (CCL-2). The cell culture was performed as described previously ([Dolde et al., 2021]). Briefly, the cell lines were kept in DMEM Glutamax with 10% FCS and 1% penicillin/streptomycin at 37 °C with 5% CO2. They were grown in normal cell culture flasks (Sarstedt) to 75–90% confluence and seeded into standard 96-well plates 24 h prior to compound treatment. The cells were treated by performing a medium change to Advanced DMEM/F12 supplemented with 2 mM L-glutamine containing the indicated compound concentrations.\n(§2) The assay was performed as described previously ([Schildknecht et al., 2009]). In brief, cells were stained with 10 μg/ml resazurin and incubated for 30 min at 37 °C and 5% CO2. The fluorescence of resazurin was detected with an excitation wavelength of 530 nm, using a 590 nm long-pass filter to record the emission.\n(§3) Fig. 3. Cell type specificity of aerugine cytotoxicity. A Cultures of LUHMES neurons were used on d0 (proliferating, blue), d2 (immature, black) or d6 (mature, red) of differentiation for cytotoxicity testing. Cells were exposed to nine serial dilutions of synthetic aerugine. The cell viability was assessed 24 h later by calcein-AM & H-33342 staining and high content imaging. […] Dotted lines at 4 μM indicate the average EC50 for mature LUHMES. […] They were treated for 72 h with synthetic aerugine. The overall cell viability was assessed by measuring resazurin reduction in technical triplicates. Data are presented as means ± range of two biological replicates (different experiments). C Three iPSC-derived neuronal cell types were treated for 24 h with synthetic aerugine. The cell viability was assessed 24 h later by calcein-AM & H-33342 staining and high content imaging. Data are presented as means ± SEM of three biological replicates (different experiments). D Lack of cytotoxic or bacteriostatic effects of aerugine (20 μM) on exemplary gram-positive and gram-negative microbes: The growth characteristics of Enterococcus faecalis (gram-positive) and Neisseria gonorrhoeae MS11 (gram-negative) were followed during the log growth phase in their respective culture media. Data are from one biological replicate."}, "Hek293FT": {"system": "Hek293FT", "assay": "Cell line viability, resazurin reduction, 72 h", "type": "cell-based, human", "conditions": "at <100 μM", "procedure": "as §1, §2, §3"}, "HepG2": {"system": "HepG2", "assay": "Cell line viability, resazurin reduction, 72 h", "type": "cell-based, human", "conditions": "HepG2, 72 h, at <100 μM", "procedure": "as §1, §2, §3"}}, "note": "Entries after “also recorded” stand apart in the source; their conditions may differ."}
{"smiles": "OCC1CSC(c2ccccc2O)=N1", "note": "(stereo not shown) [aerugine, 2-[4-(hydroxymethyl)-4,5-dihydro-1,3-thiazol-2-yl]phenol]", "values": [{"measurement": "basal slowing response (BSR)", "setting": "[1]", "result": "attenuated; also recorded: exerted functional dopaminergic toxicity"}, {"measurement": "toxicity (overall cell viability, resazurin reduction)", "setting": "HeLa", "result": "no toxicity was observed"}, {"measurement": "toxicity (overall cell viability, resazurin reduction)", "setting": "HeLa; listed as Aerugine", "result": "non-toxic"}, {"measurement": "toxicity (overall cell viability, resazurin reduction)", "setting": "Hek293FT", "result": "no toxicity was observed"}, {"measurement": "toxicity (overall cell viability, resazurin reduction)", "setting": "Hek293FT; listed as Aerugine", "result": "non-toxic"}, {"measurement": "toxicity (overall cell viability, resazurin reduction)", "setting": "HepG2", "result": "no toxicity was observed"}, {"measurement": "toxicity (overall cell viability, resazurin reduction)", "setting": "HepG2; listed as Aerugine", "result": "non-toxic"}]}
